Counter-ions that a name gives are not always drawn.
Legend:
[1] = target: T1, recombinant human ATX/ENPP2 (Homo sapiens, UniProt Q13822); test: FS-3 assay of LysoPLD activity (2 h); assay type: biochemical; conditions: synthetic fluorescent substrate FS-3, 2 h; read-out: In vitro IC50, Recombinant human ATX/ENPP2, FS-3 (2 h)
T1 construct: (His)6 (C); made in house; host or cells: baculovirus AcNPV; virus made in Sf9, protein expressed in expresSF+ insect cells, from culture supernatant
Method: Recombinant ATX/ENPP2 protein (2 µg/ml) and various concentrations of the inhibitors were mixed and incubated at 37°C for 2 h in 100 mM Tris-HCl buffer (pH 8.0) containing 1%DMSO, 500 mM NaCl, 5 mM MgCl2, and 0.05% Triton X-100, in the presence of a fluorescent substrate FS-3 (1 µM). After incubation, fluorescence at 520 nm with excitation at 494 nm was measured.
(§1) Measurement points of choline production were plotted against the concentration of the inhibitor and the theoretical curve to obtain the IC50 value of the inhibitor for LysoPLD activity was obtained using the Activity Base version 7.1.0.39 software from ID Business Solutions Ltd.

[2] = target: T1, recombinant human ATX/ENPP2; test: Choline release assay, 16:0-LPC substrate, 30 min incubation; assay type: biochemical; conditions: read-out: In vitro IC50, Recombinant human ATX/ENPP2, Choline (30 min)
Method: In the choline release assay, a series of reaction mixtures containing different concentrations of the inhibitors were tested in parallel. Recombinant ATX/ENPP2 was dissolved in 100 mM Tris-HCl buffer (pH 9.0) containing 500 mM NaCl, 5 mM MgCl2 and 0.05% Triton X-100. First, the aqueous solution of recombinant ATX/ENPP2 (final concentration 2 µg/ml) was added to the reaction mixture containing different concentrations of the inhibitors, 1 mM 16:0-LPC, and DMSO 1%. Then, each mixture was incubated at 37°C for 30 min (primary reaction). A samples of each reaction mixture was subjected to the secondary incubation at 37°C for 30 min with 10 times the volume of 100 µM Amplex Red in 50 mM Tris-HCl buffer (pH 8.0), 1 U/ml horseradish peroxidase, 150 mU/ml choline oxidase and 5 mM CaCl2,. Fluorescence at 590 nm was measured with excitation at 544 nm and the amount of choline released in each reaction mixture was quantified based on a calibration curve created from a choline chloride standard.
as §1

[3] = target: T1, recombinant human ATX/ENPP2; test: Choline release assay, 16:0-LPC substrate, overnight (15 h) incubation; assay type: biochemical; conditions: about 15 h incubation, read-out: In vitro IC50, Recombinant human ATX/ENPP2, Choline (O/N)
Method: A series of reaction mixtures containing different concentrations of the inhibitors were also tested in parallel using an overnight incubation. First, the aqueous solution of recombinant ATX/ENPP2 (final concentration 2 µg/ml) or plasma samples from various animal species (final concentration 40%) was added to the reaction mixture containing different concentrations of ATX/ENPP2 inhibitors, 1 mM 16:0-LPC, and 1% DMSO. Then, each mixture was incubated at 37°C for 15 h (primary reaction). Samples of each mixture were subjected to the secondary reaction with 10 volumes of 300 µM TOOS in 100 mM Tris-HCl solution (pH 8.5), 500 µM 4-aminoantipyrine, 600 mU/ml horseradish peroxidase, 3 U/ml choline oxidase, and 5 mM CaCl2, at 37°C for 20 min (secondary reaction). […] Measurement points of choline production were plotted against the concentration of the inhibitor and the theoretical curve to obtain the IC50 value of the inhibitor for LysoPLD activity was obtained using the Activity Base version 7.1.0.39 software from ID Business Solutions Ltd.

plasma LPA = system: plasma LPA; parameters: method as in PMID 20392816; conditions: at 24 h after administration; cited from earlier work
[4] = system: urethane-anesthetized rats; test: Intraurethral pressure (IUP) in urethane-anesthetized rats; assay type: in vivo, rat
Method: Male Crl∶CD(SD) rats (7–8 weeks old) were anesthetized by intraperitoneal administration of urethane at a dose of 1.5 g/5 ml/kg. An arterial catheter (JMS cut-down tube; C3, JMS, Japan) was inserted into the common carotid artery to monitor blood pressure. After the abdomen was opened, another catheter (inner diameter, 0.9 mm; outer diameter, 1.5 mm; Shin-Etsu Polymer, Japan) was inserted into the duodenum and held in place with a suture thread. The abdomen was then cut along the median line and the urethra was ligated in the proximity of the pubic bone. For measurement of intraurethral pressure (IUP), a urethral catheter (JMS cut-down tube; C3, JMS Inc., Japan) was inserted from the top side of the bladder through the urethra and held in place by ligation at the bladder neck. Finally, both the arterial catheter and urethral catheter were connected to a pressure transducer (Nihon Kohden, Japan), and the rat was placed on a warm mat (37°C). Blood pressure and IUP were measured by a recorder (Graphtec, Japan) using a torsion-pressure amplifier (Nihon Kohden, Japan).
ONO-8430506 was dissolved in an aqueous solution containing 1.1 times the equivalent amount of NaOH. After confirming stabilization of IUP, rats received either the inhibitor or tamsulosin at a dose of 2 ml/kg in an aqueous solution through the duodenal catheter. IUP and blood pressure were measured continuously during the 20-min after administration of either the inhibitor or tamsulosin. At the end of the 20-min period, heparinized blood was collected from the jugular vein of the rat to prepare a plasma sample. Rats were then euthanized by intravenous administration of 1 ml of pentobarbital (Somunopentyl, Kyoritsu Seiyaku Corporation). Postmortem IUP was measured until the lowest IUP value was reached and stabilized. The maximum percent decreases relative to the difference between baseline IUP and postmortem IUP was calculated to measure the change from baseline in IUP during the 20-min after drug administration.

[5] = system: urethane-anesthetized rats; test: Mean blood pressure in urethane-anesthetized rats; assay type: in vivo, rat; conditions: intraduodenal, up to 3 mg/kg (tamsulosin at the same dose range)
Method: Male Crl∶CD(SD) rats (7–8 weeks old) were anesthetized by intraperitoneal administration of urethane at a dose of 1.5 g/5 ml/kg. An arterial catheter (JMS cut-down tube; C3, JMS, Japan) was inserted into the common carotid artery to monitor blood pressure. After the abdomen was opened, another catheter (inner diameter, 0.9 mm; outer diameter, 1.5 mm; Shin-Etsu Polymer, Japan) was inserted into the duodenum and held in place with a suture thread. The abdomen was then cut along the median line and the urethra was ligated in the proximity of the pubic bone. […] Blood pressure and IUP were measured by a recorder (Graphtec, Japan) using a torsion-pressure amplifier (Nihon Kohden, Japan).
ONO-8430506 was dissolved in an aqueous solution containing 1.1 times the equivalent amount of NaOH. […] IUP and blood pressure were measured continuously during the 20-min after administration of either the inhibitor or tamsulosin. […] Postmortem IUP was measured until the lowest IUP value was reached and stabilized. The maximum percent decreases relative to the difference between baseline IUP and postmortem IUP was calculated to measure the change from baseline in IUP during the 20-min after drug administration.

isolated rat urethra = test: Contraction of isolated rat urethra (Magnus apparatus); conditions: 100 nM to 30 µM added cumulatively
Method: Krebs-Henseleit buffer (112 mM NaCl, 5.9 mM KCl, 2.0 mM CaCl2, 1.2 mM MgCl2, 1.2 mM NaH2PO4, 25.0 mM NaHCO3 and 11.5 mM glucose) was prepared and aerated with 95%O2+5%CO2. 8-week old male CD (SD) IGS rats (Charles River Laboratories Japan, Inc.) were decapitated and exsanguinated. The urethra was excised and immediately immersed in ice-cooled Krebs-Henseleit buffer. The excised urethra was cut open and flattened using ophthalmologic scissors. The opened and flattened urethra was cut along the circular muscle into ‘ring-shaped’ strips 2–3 mm in width×3–4 mm in length using a razor. One ‘ring-shaped’ urethral specimen was prepared for each male rat.
Each prepared urethral specimen was hung inside a 5-ml Magnus tube filled with Krebs-Henseleit buffer (30°C). A resting tension of approximately 0.5 g was applied to the specimen for 60 min until it was stabilized. Thereafter, contraction motions of the specimen were recorded on a linear recorder (Model WR3320, Graphtec Corp.) after being amplified by a torsion-pressure amplifier (Models AP-641G and AP-601G, Nihon Kohden Corporation) and a force displacement pick-up transducer (Model TB-611T, Nihon Kohden Corporation). […] Phenylephrine (10 nM to 1 mM, Sigma-Aldrich) or 18:3-LPA (100 nM to 30 µM) was cumulatively added to the medium and the contractile force of each urethral specimen was measured.

| Molecule | IC50 [1] | IC50 [2] | IC50 [3] | also measured |
| --- | --- | --- | --- | --- |
| O=C1S/C(=C\c2ccc(OCc3cccc(B(O)O)c3)cc2)C(=O)N1Cc1ccc(F)cc1 [HA130] | 120 nM | 43 nM | 580 nM | – |
| O=C(CCN1CCN(C(=O)OCc2cc(Cl)cc(Cl)c2)CC1)c1ccc2[nH]c(=O)oc2c1 [PF-8380] | – | – | – | plasma LPA level after oral administration (plasma LPA): returned to the normal baseline level |
| CCCCCCCCCCCCCC(=O)Nc1ccc(CP(=O)(O)O)cc1 [S32826] | 17 nM | 66 nM | > 10000 nM | – |
| CCOc1ccccc1OCCN[C@H](C)Cc1ccc(OC)c(S(N)(=O)=O)c1 [tamsulosin, tamsulosin hydrochloride] | – | – | – | decrease in IUP ([4]; 0.3 mg/kg intraduodenal, maximum percent decrease during 20 min): 28%; dose of maximum effect on IUP ([4]; intraduodenal): 0.3 mg/kg; doses at which IUP decreased ([4]; intraduodenal): higher than 0.03 mg/kg; effect on mean blood pressure (MBP) [5]: drastically decreased |
| linolenoyl-lysophosphatidic acid [18:3-LPA] | – | – | – | contractile effect in isolated rat urethra (isolated rat urethra): comparable to phenylephrine |

From article PMC3991570, “A Novel Highly Potent Autotaxin/ENPP2 Inhibitor Produces Prolonged Decreases in Plasma Lysophosphatidic Acid Formation In Vivo and Regulates Urethral Tension” (PLoS ONE, 2014)
